Here are results for six molecules from patent US10752584B2 (EMORY UNIVERSITY, priority 2016, dated 2020).

“Also recorded” adds a separate entry of the source. Like-named read-outs stand apart in the source and are kept apart here.

The test system of one data set is wild type HBV. The data set can be described thus: Anti-HBV assay in AD-38 cell line. To be noted: Hepatitis B virus, AD-38 cells, HBV in culture supernatant; for EC50: read-out: Anti-HBV activity EC50. It counts as cell-based. As to the method:
The anti-HBV activity of the compounds was determined by treating the AD-38 cell line carrying wild type HBV under the control of tetracycline (see Ladner S. K., Otto M. J., Barker C. S., Zaifert K., Wang G. H., Guo J. T., Seeger C. & King R. W. Antimicrob. Agents Chemother. 1997, 41, 1715-20). Removal of tetracycline from the medium [Tet (−)] results in the production of HBV. The levels of HBV in the culture supernatant fluids from cells treated with the compounds were compared with that of the untreated controls. Control cultures with tetracycline [Tet (+)] were also maintained to determine the basal levels of HBV expression. 3TC was included as positive control.
The median effective concentrations (EC50) ranges of several of the compounds described herein against HBV are shown in Table 3: […]

The test system of data set [1] is nuclear DNA in HepG2 cells. The data set can be described thus: Mitochondrial toxicity assay in HepG2 cells: nuclear DNA. It counts as cell-based. From the text: (§1) A real-time PCR assay to accurately quantify mitochondrial DNA content has been developed (see Stuyver L J, Lostia S, Adams M, Mathew J S, Pai B S, Grier J, Tharnish P M, Choi Y, Chong Y, Choo H, Chu C K, Otto M J, Schinazi R F. Antiviral activities and cellular toxicities of modified 2′,3′-dideoxy-2′,3′-didehydrocytidine analogs. Antimicrob. Agents Chemother. 2002; 46: 3854-60). This assay was used in all studies described in this application that determine the effect of compounds on mitochondrial DNA content. In this assay, low-passage-number HepG2 cells were seeded at 5,000 cells/well in collagen-coated 96-well plates. Test compounds were added to the medium to obtain final concentrations of 0 μM, 0.1 μM, 10 μM and 100 μM. On culture day 7, cellular nucleic acids were prepared by using commercially available columns (RNeasy 96 kit; Qiagen). […] The mitochondrial cytochrome c oxidase subunit II (COXII) gene and the β-actin or rRNA gene were amplified from 5 μl of the eluted nucleic acids using a multiplex Q-PCR protocol with suitable primers and probes for both target and reference amplifications. For COXII the following sense, probe and antisense primers were used, respectively: 5′-TGCCCGCCATCATCCTA-3′, 5′-tetrachloro-6-carboxyfluorescein-[…]-TAMRA-3′ and 5′-[…]-3′. For exon 3 of the β-actin gene (GenBank accession number E01094) the sense, probe, and antisense primers are 5′-GCGCGGCTACAGCTTCA-3′, 5′-6-[…]-3′ and 5′-[…]-3′, respectively. The primers and probes for the rRNA gene are commercially available from Applied Biosystems. Since equal amplification efficiencies are obtained for all genes, the comparative CT method was used to investigate potential inhibition of mitochondrial DNA synthesis. The comparative CT method uses arithmetic formulas in which the amount of target (COXII gene) is normalized to the amount of an endogenous reference (the β-actin or rRNA gene) and is relative to a calibrator (a control with no drug at day 7). The arithmetic formula for this approach is given by 2−ΔΔCT, where ΔΔCT is (CT for average target test sample CT for target control)−(CT for average reference test−CT for reference control) (see Johnson M R, K Wang, J B Smith, M J Heslin, R B Diasio. Quantitation of dihydropyrimidine dehydrogenase expression by real-time reverse transcription polymerase chain reaction. Anal. Biochem. 2000; 278:175-184). A decrease in mitochondrial DNA content in cells grown in the presence of drug indicated mitochondrial toxicity.
(§2) The effect of compounds 7 and 9 on the levels of mitochondrial and nuclear DNA, and lactic acid production was evaluated in HepG2 cells (14-day assay), and the data is tabulated below in Table 2: […]

In data set [2] the test system is mitochondrial DNA (COXII gene) in HepG2 cells. The data set can be described thus: Mitochondrial toxicity assay in HepG2 cells: mitochondrial DNA. It counts as cell-based. To be noted: for IC50: read-out: IC50 MtDNA.
From the text: as §1, §2

The subject of a further data set is HepG2 cells. The data set can be described thus: Lactic acid production in HepG2 cells. Format: cell-based. The note with it: 14-day assay, 10 μM. How it is done: To measure the effects of the compounds on lactic acid production, HepG2 cells from a stock culture were diluted and plated in 12-well culture plates at 2.5×10^4 cells per well. Various concentrations (0 μM, 0.1 μM, 1 μM, 10 μM and 100 μM) of compound were added, and the cultures were incubated at 37° C. in a humidified 5% CO2 atmosphere for 4 days. At day 4, the number of cells in each well was determined and the culture medium collected. The culture medium was then filtered, and the lactic acid content in the medium was determined using a colorimetric lactic acid assay (Sigma-Aldrich). Since lactic acid product can be considered a marker for impaired mitochondrial function, elevated levels of lactic acid production detected in cells grown in the presence of test compounds would indicate a drug-induced cytotoxic effect.
as §2

Data set [3] is described as follows: Cellular toxicity assay in Vero cells. It counts as cell-based. The note with it: African green monkey, read-out: Cytotoxicity. As to the method: (§3) The toxicity of the compounds was assessed in Vero, human PBM, CEM (human lymphoblastoid), MT-2, and HepG2 cells, as described previously (see Schinazi R. F., Sommadossi J.-P., Saalmann V., Cannon D. L., Xie M.-Y., Hart G. C., Smith G. A. & Hahn E. F. Antimicrob. Agents Chemother. 1990, 34, 1061-67). Cycloheximide was included as positive cytotoxic control, and untreated cells exposed to solvent were included as negative controls. The cytotoxicity IC50 was obtained from the concentration-response curve using the median effective method described previously (see Chou T.-C. & Talalay P. Adv. Enzyme Regul. 1984, 22, 27-55; Belen'kii M. S. & Schinazi R. F. Antiviral Res. 1994, 25, 1-11).

For a further data set, the system named is Vero. Briefly: Cellular toxicity assay in Vero cells. It counts as cell-based. To be noted: read-out: Cytotoxicity. How it is done:
as §3

In another data set the test system is HBV e antigen (HBeAg). Briefly: HBeAg ELISA in HepAD38 cells (cccDNA-dependent marker). Format: cell-based. How it is done: Production of secreted HBeAg is predominantly cccDNA-dependent in HepAD38 cells and therefore can serve as a surrogate marker for cccDNA (Ladner, S. K., Otto, M. J., Barker, C. S., Zaifert, K., Wang, G. H., Guo, J. T., Seeger, C., King, R. W. Antimicrob Agents Chemother 1997, 41, 1715-1720; Zhou T, Guo H, Guo J T, Cuconati A, Mehta A, Block T M. Antiviral Res. 2006; 72 (2): 116-24.). The effect on the levels of cccDNA formation was assessed using a cell-based assay that measures HBV e antigen (HBeAg) as a cccDNA-dependent marker in the HepAD38 system. HepAD38 cells were seeded at 50,000 cells/well in collagen-coated 96-well plates with DMEM/F12 medium (Life Technologies) supplemented with 10% heat-inactivated fetal bovine serum. Cells were treated with 0.3 μg/ml tetracycline as needed. Test compounds and controls were added to cells to a final concentration of 10 μM or in a dose response manner ranging from 0.001 to 10 μM. Medium and test compounds were replenished every 5 days in culture. Supernatants were harvested at day-14, clarified by centrifugation at 5000 rpm for 5 min, and stored at −70° C. until use. ELISA—Culture medium was diluted 1:15 in DMEM/F12 and the levels of HBeAg secreted in the culture medium were measured by using HBeAg ELISA kit (BioChain Institute Inc. Hayward, Calif.) according to the manufacturer's protocol. The concentration of compound that reduced levels of secreted HBeAg by 50% (EC50) was determined by linear regression.

Data set [4] is described as follows: Cellular toxicity assay in human PBM cells. It counts as cell-based. The note with it: human, human PBM cells, read-out: Cytotoxicity. How it is done:
as §3

A further data set relates to human PBM. The data set can be described thus: Cellular toxicity assay in human PBM cells. Format: cell-based. The note with it: read-out: Cytotoxicity. How it is done:
as §3

The nature of data set [5]: Cellular toxicity assay in HepG2 cells. Format: cell-based. To be noted: human, read-out: Cytotoxicity. How it is done:
as §3

Data set [6] is described as follows: Cellular toxicity assay in CEM cells. Format: cell-based. The note with it: human, CEM lymphoblastoid cells, read-out: Cytotoxicity. As to the method: as §3
For the next data set, the target named is T1, HBV Cp149 (Hepatitis B virus genotype D subtype adw, UniProt P03147).
T1 construct: hepatitis B virus core C-terminally truncated protein (HBV Cp149); made in house
Briefly: Capsid formation assay, electron micrographs. It counts as biochemical. The note with it: 25 μM compound. As to the method: In the absence of compounds which disrupt capsid formation, hepatitis B virus core C-terminally truncated protein (HBV Cp149, protein isolated by reported methods [Zlotnick, A et al; Biochem 1996, 35, 7412-7421] normally assembles into an HBV Cp149 capsid. The purpose of this example was to determine whether putative active agents would disrupt capsid formation, and thus be active as anti-HBV agents. Putative active agents were incubated at a concentration of 25 μM for 1 h at 4° C. with HBV Cp149 at a concentration of 10 μM. Capsid assembly was then promoted by adding 300 mM NaCl, and storing the mixture overnight at 4°. Negative-stain electron micrographs were collected using a JEOL JEM-1400 120 kV electron microscope using uranyl acetate as a contrast agent.

In a further data set the target is T2, HBV Cp149 capsids (Hepatitis B virus genotype D subtype adw, UniProt P03147).
T2 construct: hepatitis B virus core C-terminally truncated protein (HBV Cp149); made in house
Briefly: Disruption of already-formed capsids, electron micrographs. The note with it: 25 μM compound, overnight at 4°, FIG. 2-4. Format: biochemical. As to the method: The next question was whether these compounds could disrupt already-formed capsids. Accordingly, the capsids were formed as discussed above (incubation of isolated HBV Cp149 with 300 mM NaCl, stored overnight at 4°). Then, the capsids were incubated with the putative compound (overnight at 4°), and electron micrographs were then taken.

Where [7] appears, read: HepG2 cells, 14-day assay, 10 μM.

T1 sequence (P03147 1-149): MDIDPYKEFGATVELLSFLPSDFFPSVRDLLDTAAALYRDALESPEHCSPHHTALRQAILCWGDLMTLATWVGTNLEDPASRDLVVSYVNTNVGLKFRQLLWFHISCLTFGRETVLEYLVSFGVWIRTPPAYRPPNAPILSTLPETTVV
T2 sequence (P03147 1-149): as above

Turning to `Nc1ccn([C@@H]2CS[C@H](CO)O2)c(=O)n1` [Compound 3TC, lamivudine, reference compound], the EC50 (as a rule, the concentration giving half of the maximal effect) with wild type HBV was in the range of 100 to 900 nM. Also, in the data set on wild type HBV (read-out: Anti-HBV activity EC90), the EC90 (in general, the point of the concentration-response curve where the effect stands at 90%) was 1 to 9 µM. Also, the IC50 (as a rule, the point on the concentration scale where inhibition reaches its midpoint) in data set [1] (Homo sapiens, 336 h, HepG2 cells, 14-day assay) is greater than 10 µM; in [2] (Homo sapiens, HepG2, 336 h), greater than 10 µM. Also, the inhibition – broadly, the share of the control response that was lost under treatment – at 10 µM in [1] (Homo sapiens, HepG2, 336 h, read-out: % inhibition nDNA) came to 29.6%; in data set [2] (Homo sapiens, HepG2, 336 h, read-out: % inhibition MtDNA) it was 8.8%. Moreover, in data set [2] (setting [7]), the “MtDNA (% of control)” value was 130 (85.7-196) % of control. Also, the “Lactic acid production (% of control)” value in the data set on HepG2 cells is 94 ± 20.8 % of control.

In the case of `O=C(Nc1ccc(F)c(F)c1)c1cc(S(=O)(=O)NCc2cn(C3CC3)nn2)ccc1F` [Compound 13, 5-(N-((1-Cyclopropyl-1H-1,2,3-triazol-4-yl)methyl)sulfamoyl)-N-(3,4-difluorophenyl)-2-fluorobenzamide], the EC50 in the data set with wild type HBV was 100 to 900 nM; in the data set on HBV e antigen (HBeAg) (Hepatitis B virus, HePAD38, 336 h, read-out: Anti-HBeAg activity EC50), less than 10 µM. Further, the CC50 was 55.6 µM in data set [3]; 66 µM in the data set with Vero; greater than 100 µM in data set [4]; 64.8 µM in the data set with human PBM; greater than 100 µM in data set [5]. For the same molecule, the “Anti-HBeAg activity, percentage in brackets under EC50” value in the data set on HBV e antigen (HBeAg) (HepAD38 cells, day 14, concentration not printed in the table (method: 10 μM)) was “(86%)”.

As to `Cc1c(C(=O)C(=O)NCc2nn[nH]n2)c(C)n(C)c1C(=O)Nc1ccc(F)c(F)c1` [Compound 82, 4-(2-(((2H-tetrazol-5-yl)methyl)amino)-2-oxoacetyl)-N-(3,4-difluorophenyl)-1,3,5-trimethyl-1H-pyrrole-2-carboxamide], the CC50 in data set [6], in data set [3], in data set [4] and in [5] was greater than 100 µM each time. Also, the 50% effective concentration (EC50) in the data set with wild type HBV fell in the range of 1000 to 9000 nM.

Regarding `Cc1c(C(=O)C(=O)NCC#Cc2nccn2C)c(C)n(C)c1C(=O)Nc1ccc(F)c(F)c1` [Compound 83, N-(3,4-difluorophenyl)-1,3,5-trimethyl-4-(2-((3-(1-methyl-1H-imidazol-2-yl)prop-2-yn-1-yl)amino)-2-oxoacetyl)-1H-pyrrole-2-carboxamide], the CC50 in data set [6] was 4 µM; in [3], 7 µM; in [4], 7 µM; in [5], 42 µM. Moreover, the EC50 in the data set on wild type HBV lay in the range of 1000 to 9000 nM.

Consider `CCOC(=O)C1=C(CN2CCOCC2)NC(c2nccs2)=NC1c1ccc(F)cc1Br` (centres unmarked) [GLS4, Morphothiadine mesilate], for which, at HBV Cp149 (10 μM HBV Cp149, 300 mM NaCl, FIG. 1), the “Effect on capsid formation” value is “misassembled hollow spheres; also recorded: capsid formation was disrupted”. In addition, the “Size of the hollow spheres formed” value at HBV Cp149 (10 μM HBV Cp149, vehicle approximately 40 nm) is given as 80-100 nm. Besides, the “Effect on already-formed capsids” value at HBV Cp149 capsids was “misassembled hollow spheres; also recorded: the capsids were disrupted”.

For the molecule `Nc1ccn([C@H]2CC[C@@H](CO)O2)c(=O)n1` [ddC, reference compound], the IC50 in data set [1] (HepG2 cells, 14-day assay) was less than 10 µM; in [2] (HepG2 cells, 14-day assay), less than 10 µM. In addition, in data set [1] (setting [7]), the “% inhibition nDNA” value was 52.4%. Further, the “MtDNA (% of control)” value in [2] was 5.3 (5.0-5.8) % of control. Moreover, the “% inhibition MtDNA” value in data set [2] (setting [7]) is 97.4%. Moreover, in the data set on HepG2 cells, the “Lactic acid production (% of control)” value is listed as 196 ± 73.0 % of control.
